Our source for the TGI and GI50 values is PubChem BioAssay (NCI).

What all share (test): inhibition of tumour cell growth, NCI panel, 48 h
The subject of assay [1] is COLO 205 colon.
Assay [2] relates to KM12 colon.
The test system of assay [3] is NCI-H23 lung.
In assay [4] the test system is SW-620 colon.
For assay [5], the system named is UO-31 renal.
The test system of assay [6] is NCI-H226 lung.
Assay [7] has as its system RPMI-8226 leukemia.

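These data come from cells grown in 96-well plates and exposed to compound for 48 hours at five concentrations. GI50 marks 50% less growth. TGI marks complete inhibition of growth.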

For the compound `N/N=C1\C(=O)N(C2CCCCCC2)C(=O)C1C(=O)NC1CCCCCC1` (stereo unspecified), the TGI is over 100 µM in assay [1]; over 100 µM in assay [2]; 52.1 µM in assay [3]; over 100 µM in assay [4]; 42 µM in assay [5].

For the compound `O=C(CCC(=O)Nc1ccc(Cl)c(Cl)c1)CC(=O)c1ccc(Br)cc1`, the TGI in assay [1], in assay [2], in assay [6], in assay [3], in assay [7] and in assay [4] was over 100 µM throughout. In assay [5], the TGI was over 100 µM.

Take `C=C1C(=O)OC2C/C(C)=C/CC/C(C)=C/CCC3(COC(C)=O)OC3CC12` (stereo unspecified): the TGI in assay [1] came to 15.6 µM; in assay [2], 27.9 µM; in assay [3], 26 µM; in assay [7], 13 µM; in assay [4], 5.09 µM; in assay [5], 25.5 µM.

Take `Cc1nn[n-]n1.N.N.N.N.N.[Cl-].[Co+3]`: the GI50 in assay [1], in assay [2], in assay [6], in assay [3], in assay [7] and in assay [4] was over 100 µM each time. Also, the GI50 in assay [5] was over 100 µM. Further, the TGI in assay [1], in assay [2], in assay [6], in assay [3], in assay [7] and in assay [4] was over 100 µM each time. The TGI in assay [5] is over 100 µM.

Regarding `CC(C)(C)c1cc(C(O)(C(F)(F)F)C(F)(F)F)c2c(c1)C(C(F)(F)F)(C(F)(F)F)OC(C)(C(C)(C)C)N2` (stereo unspecified), the TGI in assay [1] was 4.02 µM; in assay [2], over 100 µM; in assay [6], 8.53 µM; in assay [3], 7.41 µM; in assay [7], 9.25 µM; in assay [4], 44.6 µM. Besides, in assay [5], the TGI was 21 µM.

As to `COC(=O)/C=C(C)/C=C/C1OC(C)OCC1O` (stereo unspecified), the TGI in assay [1], in assay [2], in assay [6], in assay [3], in assay [7] and in assay [4] was over 100 µM each time. In assay [5], the TGI is over 100 µM.

Turning to `N#CN/C(N)=N/C/N=C(\N)NC#N`, the TGI was over 100 µM in assay [1]; over 100 µM in assay [2]; over 100 µM in assay [6]; over 100 µM in assay [3]; over 100 µM in assay [7]; 36 µM in assay [4]. In addition, the TGI in assay [5] is over 100 µM.

On to `CCNC(=O)COc1ccc(Br)cc1Br`, for which the TGI in assay [1], in assay [2], in assay [6], in assay [3], in assay [7] and in assay [4] was over 100 µM each time. Besides, in assay [5], the TGI was over 100 µM.

In the case of `CC(=O)N/N=C1\CC(C)(C)C2CCC1C2` (stereo unspecified), the TGI in assay [1], in assay [2], in assay [3], in assay [7], in assay [4] and in assay [5] was over 100 µM each time.

As to `CCC1CC2C(=O)N(c3ccccc3)C(=O)C2c2[nH]c3ccccc3c21` (stereo unspecified), the TGI was 78.5 µM in assay [1]; over 100 µM in assay [2]; 33.8 µM in assay [6]; over 100 µM in assay [3]; over 100 µM in assay [7]; over 100 µM in assay [4]. Besides, the TGI in assay [5] is over 100 µM.

For the compound `CC1=CC(=O)CC2(C)CC[C@@H]3C[C@]12OC3(C)C` (stereo partly specified), the TGI in assay [1], in assay [2], in assay [6], in assay [3], in assay [7] and in assay [4] was over 100 µM throughout. The same compound showed a TGI in assay [5] of over 100 µM.

With `COc1ccc(OC)c(NC(=O)CCC/C(CC(=O)c2ccc(O)c(OC)c2)=N\Nc2nnc(C)n2N)c1`, the TGI in assay [1], in assay [2], in assay [6], in assay [3], in assay [7] and in assay [4] was over 100 µM in each case. For the same compound, in assay [5], the TGI was over 100 µM.

In the case of `COC/C=C\COC`, the TGI in assay [1], in assay [2], in assay [6], in assay [7], in assay [4] and in assay [5] was over 100 µM in each case.

For `O=c1/c(=C/c2ccccc2[N+](=O)[O-])sc2nc3ccccc3n12`, the TGI was over 46.4 µM in assay [1]; over 46.4 µM in assay [2]; over 46.4 µM in assay [6]; over 46.4 µM in assay [3]; 20.1 µM in assay [7]; 55.6 µM in assay [4]. Besides, the TGI in assay [5] is over 46.4 µM.

On to `CC1/C=C/[C@@]2(C)CCC(C(C)(C)O)C2C(O)C[C@](C)(O)/C=C/C1` (stereo partly specified), for which the TGI in assay [1] was over 100 µM; in assay [2], over 100 µM; in assay [6], 52 µM; in assay [3] it was over 100 µM; in assay [7], over 100 µM; in assay [4], over 100 µM. The TGI in assay [5] was over 100 µM.

Take `C/C=C(/I)CBr`: the TGI stood at 28.2 µM in assay [1]; 38.5 µM in assay [6]; 31.4 µM in assay [3]; 39.2 µM in assay [7]; 36.6 µM in assay [4]; 34 µM in assay [5].

On to `COc1ccc(C(=O)O[C@H]2[C@@H]3C=CO[C@@H](OC4OC(CO)C(O)C(O)C4O)[C@@H]3[C@@]3(CO)O[C@@H]23)cc1O` (stereo partly specified), for which the TGI in assay [1], in assay [2], in assay [3], in assay [7], in assay [4] and in assay [5] was over 100 µM each time.

In the case of `COc1ccc(NC(=O)CC2SC(=Nc3ccccc3C)NC2=O)c([N+](=O)[O-])c1` (stereo unspecified), the TGI in assay [1], in assay [2], in assay [6], in assay [3], in assay [7] and in assay [4] was over 100 µM each time. In addition, the TGI in assay [5] is over 100 µM.

Take `CC(Oc1ccc2c(-c3ccccc3)cc(=O)oc2c1)C(=O)O` (stereo unspecified): the TGI in assay [1], in assay [2], in assay [6], in assay [3], in assay [4] and in assay [5] was over 100 µM in each case.

In the case of `CC1=C[C@H]2c3c([nH]c4ccccc34)C(c3c[nH]c4ccccc34)[C@H]2CC1` (stereo partly specified), the TGI in assay [1] worked out at 13 µM; in assay [6], 27.7 µM; in assay [7] it was 12 µM; in assay [4], 24.1 µM.

As to `NC1=C(NC(=O)Cc2ccccc2F)C(=O)c2ccccc2C1=O`, the TGI in assay [1], in assay [2], in assay [6], in assay [3], in assay [7] and in assay [4] was over 100 µM each time. Further, the TGI in assay [5] is over 100 µM.

Regarding `CCOC(=O)C(=O)Nc1ccccc1C`, the TGI in assay [1], in assay [6], in assay [3], in assay [7], in assay [4] and in assay [5] was over 100 µM throughout.

On to `C#Cc1cccc(N2C(=O)c3c(c(-c4ccccc4)c(-c4ccc(Cc5ccc(-c6c(-c7ccccc7)c7c(c(-c8ccccc8)c6-c6ccccc6)C(=O)N(c6cccc(C#C)c6)C7=O)cc5)cc4)c(-c4ccccc4)c3-c3ccccc3)C2=O)c1`, for which the TGI is 66.5 µM in assay [1]; over 100 µM in assay [2]; over 100 µM in assay [3]; over 100 µM in assay [7]; over 100 µM in assay [4]; over 100 µM in assay [5].

Turning to `CCOC(=O)C1=C(Nc2ccc(Cl)cc2Cl)OCC1=O`, the TGI in assay [1], in assay [2], in assay [6], in assay [3], in assay [7] and in assay [4] was over 100 µM throughout. Moreover, the TGI in assay [5] is over 100 µM.

For `CCC(=O)c1c(NOC2OCC(OC(C)=O)C(OC(C)=O)C2OC(C)=O)nc(OC)n(C)c1=O` (stereo unspecified), the TGI in assay [1], in assay [2], in assay [6], in assay [3], in assay [7] and in assay [4] was over 100 µM throughout. The compound also gave a TGI in assay [5] of over 100 µM.

As for `CCCNC(=O)C1C(=O)C(=O)N(CCC)C1=O` (stereo unspecified), the TGI in assay [1], in assay [2], in assay [3], in assay [7], in assay [4] and in assay [5] was over 100 µM in each case.

For `COc1ccc(NC(=O)/C(=C/c2ccccc2)C(C)=O)cc1`, the TGI is 35.7 µM in assay [1]; 27.5 µM in assay [2]; 96.9 µM in assay [6]; 24.8 µM in assay [7]; 35.1 µM in assay [4]; 29 µM in assay [5].
